Test results: ChEMBL document CHEMBL1201862, “PubChem BioAssay data set” (2004)
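96-well plates; 48 h exposure; 5 concentrations. Endpoints by linear interpolation between flanking doses. Not reached: highest tested concentration assigned. GI50 is the concentration that inhibits growth by half.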 Calls of active or inactive are those of the source. No stated cut-off is given here; in the data, active = GI50 up to about 1.1 µM and inactive = higher.

Assays:
Assay in all cases: DTP human tumour cell line panel, 48 h
[1] = system: HOP-92
[2] = system: HT-29
[3] = system: SW-620
[4] = system: A498
[5] = system: A549
[6] = system: HCT-116
[7] = system: OVCAR-5
[8] = system: IGROV-1
[9] = system: 786-0
[10] = system: LOX IMVI
[11] = system: CCRF-CEM
[12] = system: UO-31
[13] = system: NCI-H226
[14] = system: MDA-MB-231
[15] = system: SF-268
[16] = system: TK-10
[17] = system: UACC-62
[18] = system: NCI-H23
[19] = system: UACC-257
[20] = system: SNB-19
[21] = system: U-251
[22] = system: DU-145
[23] = system: KM12
[24] = system: SN12C
[25] = system: Hs-578T
[26] = system: MOLT-4
[27] = system: SK-MEL-2
[28] = system: SK-MEL-28
[29] = system: OVCAR-3
[30] = system: COLO 205
[31] = system: NCI-H460
[32] = system: NCI/ADR-RES
[33] = system: SK-MEL-5
[34] = system: EKVX
[35] = system: MCF7
[36] = system: M14
[37] = system: SK-OV-3
[38] = system: BT-549
[39] = system: SF-539
[40] = system: CAKI-1
[41] = system: K562
[42] = system: ACHN
[43] = system: HCT-15
[44] = system: Malme-3M
[45] = system: RPMI-8226
[46] = system: SF-295
[47] = system: OVCAR-4
[48] = system: OVCAR-8
[49] = system: NCI-H522
[50] = system: SNB-75
[51] = system: SR
[52] = system: T47D
[53] = system: MDA-MB-435
[54] = system: MDA-N
[55] = system: HCC 2998
[56] = system: PC-3
[57] = system: RXF 393
[58] = system: HOP-62

C#CCn1ncc2c(SC)ncnc21
GI50 [1]: > 100 µM (inactive) | GI50 [2]: > 100 µM (inactive) | GI50 [3]: > 100 µM (inactive) | GI50 [4]: > 100 µM (inactive) | GI50 [5]: > 100 µM (inactive) | GI50 [6]: > 100 µM (inactive) | GI50 [7]: > 100 µM (inactive) | GI50 [8]: > 100 µM (inactive) | GI50 [9]: > 100 µM (inactive) | GI50 [10]: > 100 µM (inactive) | GI50 [11]: > 100 µM (inactive) | GI50 [12]: > 100 µM (inactive) | GI50 [13]: > 100 µM (inactive) | GI50 [14]: > 100 µM (inactive) | GI50 [15]: > 100 µM (inactive) | GI50 [16]: > 100 µM (inactive) | GI50 [17]: > 100 µM (inactive) | GI50 [18]: > 100 µM (inactive) | GI50 [19]: > 100 µM (inactive) | GI50 [20]: > 100 µM (inactive) | GI50 [21]: > 100 µM (inactive) | GI50 [22]: > 100 µM (inactive) | GI50 [23]: > 100 µM (inactive) | GI50 [24]: > 100 µM (inactive) | GI50 [25]: > 100 µM (inactive) | GI50 [26]: > 100 µM (inactive) | GI50 [27]: > 100 µM (inactive) | GI50 [28]: > 100 µM (inactive) | GI50 [29]: > 100 µM (inactive) | GI50 [30]: > 100 µM (inactive) | GI50 [31]: > 100 µM (inactive) | GI50 [32]: > 100 µM (inactive) | GI50 [33]: > 100 µM (inactive) | GI50 [34]: 66.4 µM (inactive) | GI50 [35]: > 100 µM (inactive) | GI50 [36]: > 100 µM (inactive) | GI50 [37]: > 100 µM (inactive) | GI50 [38]: > 100 µM (inactive) | GI50 [39]: > 100 µM (inactive) | GI50 [40]: > 100 µM (inactive) | GI50 [41]: > 100 µM (inactive) | GI50 [42]: > 100 µM (inactive) | GI50 [43]: > 100 µM | GI50 [44]: > 100 µM (inactive) | GI50 [45]: > 100 µM (inactive) | GI50 [46]: > 100 µM (inactive) | GI50 [47]: > 100 µM (inactive) | GI50 [48]: > 100 µM (inactive) | GI50 [49]: > 100 µM (inactive) | GI50 [50]: 33.8 µM (inactive) | GI50 [51]: > 100 µM (inactive) | GI50 [52]: 19 µM (inactive) | GI50 [53]: > 100 µM (inactive) | GI50 [54]: > 100 µM (inactive) | GI50 [55]: > 100 µM (inactive) | GI50 [56]: > 100 µM (inactive) | GI50 [57]: > 100 µM (inactive) | GI50 [58]: > 100 µM (inactive)
